Measurements published in article PMC11271967, “An inhibitory mechanism of AasS, an exogenous fatty acid scavenger: Implications for re-sensitization of FAS II antimicrobials” (PLOS Pathogens, 2024).

Legend:
AasS = AasS (Vibrio harveyi, UniProt Q00IB3); assay: Michaelis-Menten curves of AasS reaction with C10-AMS supplemented; type: biochemical
Method: To ascertain this hypothesis, we set up three combinations of AasS reaction with the varied order of C10-AMS inhibitor added in relative to C10 substrate. Namely, these included (i) addition of C10-AMS after C10 pre-incubation (S1B Fig), (ii) simultaneous addition of C10-AMS and C10 (S1C Fig), and (iii) supplementation of C10-AMS prior to C10 (S1D Fig). […] Next, we generated Michaelis-Menten curves of AasS enzyme to evaluate the inhibitory pattern of C10-AMS against ATP cofactor and C10 acyl substrate (S2 Fig).
Supplementary file ppat.1012376.s004.tif: S2 Fig Use of Michaelis-Menten curves to evaluate inhibition mode of AasS by the C10-AMS molecule. Michaelis-Menten curves of AasS reaction for the ATP cofactor (A) and C10 acyl substrate (C), on the condition of C10-AMS inhibitor supplemented at varied concentrations. C10-AMS was added at different level (ranging from 0, 125, 250, to 500 nM). Based on the dogma of Michaelis-Menten equation, a number of crosspoints of two vertically-intersecting dashed-lines (indicated with arrows) were given to determine the values of Km and Vmax. Of note, the coordinate (x,y) of the resultant crosspoint denotes the number (Km, Vmax /2). The values of Km and Vmax for AasS inhibited by C10-AMS in relative to ATP cofactor (B) and C10 substrate (D). […] Designations: Km, Michaelis constant; Vmax, Maximum velocity. (TIF)

AasS(D411A) = assay: Microscale thermophoresis (MST), AasS(D411A) mutant; type: binding, Vibrio harveyi; conditions: MST
Method: To validate poor binding of AasS(D411A) to C10 fatty acyl adenylate observed in our ITC assays, the relatively-more sensitive approach of microscale thermophoresis (MST) was additionally applied here as Jerabek-Willemsen et al. described with minor alteration. Using the Protein Labeling Kit (Protein Labeling Kit RED-NHS 2nd Generation, Nano Temper Technology), both the wild-type AasS and its D411A mutant were fluorescently labelled in the MST buffer (150 mM NaCl, 25 mM Tris-HCl, 3 mM MgCl2, 0.05% Tween-20, pH 8.0). The ligand C10-AMP used in MST assays was prepared by an equal mixture of C10 and ATP. In general, an NT.115 Monolith instrument (Nano Temper Technology, Germany) was integrated, of which the routine parameters included a RED/LED (20%) excitation power along with 60% laser power for excitation. Then, the protein samples were siphoned into MST Premium Coated capillaries for the determination of binding affinity at room temperature. The final concentrations of different AasS samples were 40 nM for WT, and 180 nM for D411A, respectively. The mixture of C10/ATP was diluted in a gradient (from 0.15 nM to 5.0 μM). Three independent MST experiments were conducted here. The dissociation constants (Kd) were calculated using the software MO. Affinity Analysis v2.3. Of note, this was largely dependent on the KD model with a 1:1 stoichiometry per binding partner.

[1] = increasing C10-AMS while varying ATP

Chain of AasS (Q00IB3 entry or part of it): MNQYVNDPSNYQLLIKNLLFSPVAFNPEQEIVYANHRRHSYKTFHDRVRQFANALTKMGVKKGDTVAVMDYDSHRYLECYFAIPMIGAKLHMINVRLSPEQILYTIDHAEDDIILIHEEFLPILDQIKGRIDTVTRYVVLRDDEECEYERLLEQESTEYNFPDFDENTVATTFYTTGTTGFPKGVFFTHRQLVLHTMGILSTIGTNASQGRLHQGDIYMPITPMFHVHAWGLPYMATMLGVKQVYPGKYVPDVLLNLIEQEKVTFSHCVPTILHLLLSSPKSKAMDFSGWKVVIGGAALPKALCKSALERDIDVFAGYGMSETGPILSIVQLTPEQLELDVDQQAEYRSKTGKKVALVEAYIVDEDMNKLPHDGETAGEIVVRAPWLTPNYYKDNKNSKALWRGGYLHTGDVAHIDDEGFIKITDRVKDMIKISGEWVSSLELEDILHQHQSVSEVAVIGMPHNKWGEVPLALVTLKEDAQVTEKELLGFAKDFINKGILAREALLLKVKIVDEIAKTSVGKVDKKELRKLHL

In the case of `CCCCCCCCCC(=O)NS(=O)(=O)OC[C@H]1O[C@@H](n2cnc3c(N)ncnc32)[C@H](O)[C@@H]1O` [C10-AMS], the “AasS reaction rate, Michaelis-Menten curve for ATP, Average” value (from here on “AasS reaction rate … for ATP, Average”) (AasS; 125 nM C10-AMS, ATP 0.125 (unit not given)) was 0.1701, the “AasS reaction rate … for ATP, Average” value (AasS; 125 nM C10-AMS, ATP 0.25) was 0.2829 and the “AasS reaction rate … for ATP, Average” value (AasS; 125 nM C10-AMS, ATP 0.5) was 0.452. The “AasS reaction rate … for ATP, Average” value (AasS; 125 nM C10-AMS, ATP 1) was 0.6373, the “AasS reaction rate … for ATP, Average” value (AasS; 125 nM C10-AMS, ATP 2) was 0.8268 and the “AasS reaction rate, Michaelis-Menten curve for C10 acyl substrate, Average” value (AasS; 125 nM C10-AMS, C10 5 (unit not given)) was 0.6857. For the same compound, the “AasS reaction rate, Michaelis-Menten curve for C10 acyl substrate, Average” value (AasS; 125 nM C10-AMS, C10 10) was 0.7781, the “AasS reaction rate, Michaelis-Menten curve for C10 acyl substrate, Average” value (AasS; 125 nM C10-AMS, C10 20) was 0.8956 and the “AasS reaction rate, Michaelis-Menten curve for C10 acyl substrate, Average” value (AasS; 125 nM C10-AMS, C10 40) was 0.924. For the same compound, the “AasS reaction rate … for ATP, Average” value (AasS; 250 nM C10-AMS, ATP 0.125 (unit not given)) was 0.1042, the “AasS reaction rate … for ATP, Average” value (AasS; 250 nM C10-AMS, ATP 0.25) was 0.1505 and the “AasS reaction rate … for ATP, Average” value (AasS; 250 nM C10-AMS, ATP 0.5) was 0.2695. The “AasS reaction rate … for ATP, Average” value (AasS; 250 nM C10-AMS, ATP 1) was 0.5022, the “AasS reaction rate … for ATP, Average” value (AasS; 250 nM C10-AMS, ATP 2) was 0.6244 and the “AasS reaction rate, Michaelis-Menten curve for C10 acyl substrate, Average” value (AasS; 250 nM C10-AMS, C10 5 (unit not given)) was 0.3359. The “AasS reaction rate, Michaelis-Menten curve for C10 acyl substrate, Average” value (AasS; 250 nM C10-AMS, C10 10) was 0.4164, the “AasS reaction rate, Michaelis-Menten curve for C10 acyl substrate, Average” value (AasS; 250 nM C10-AMS, C10 20) was 0.4772 and the “AasS reaction rate, Michaelis-Menten curve for C10 acyl substrate, Average” value (AasS; 250 nM C10-AMS, C10 40) was 0.4877. The “AasS reaction rate … for ATP, Average” value (AasS; 500 nM C10-AMS, ATP 0.125 (unit not given)) was 0.0721, the “AasS reaction rate … for ATP, Average” value (AasS; 500 nM C10-AMS, ATP 0.25) was 0.08914 and the “AasS reaction rate … for ATP, Average” value (AasS; 500 nM C10-AMS, ATP 0.5) was 0.1634. The “AasS reaction rate … for ATP, Average” value (AasS; 500 nM C10-AMS, ATP 1) was 0.2728, the “AasS reaction rate … for ATP, Average” value (AasS; 500 nM C10-AMS, ATP 2) was 0.3695 and the “AasS reaction rate, Michaelis-Menten curve for C10 acyl substrate, Average” value (AasS; 500 nM C10-AMS, C10 5 (unit not given)) was 0.2278. The “AasS reaction rate, Michaelis-Menten curve for C10 acyl substrate, Average” value (AasS; 500 nM C10-AMS, C10 10) was 0.2903, the “AasS reaction rate, Michaelis-Menten curve for C10 acyl substrate, Average” value (AasS; 500 nM C10-AMS, C10 20) was 0.3259 and the “AasS reaction rate, Michaelis-Menten curve for C10 acyl substrate, Average” value (AasS; 500 nM C10-AMS, C10 40) was 0.3858. The “change of Michaelis constant (Km) of AasS” value (AasS; [1]) was “increase”, the “change of maximum velocity (Vmax) of AasS” value (AasS; [1]) was “declined” and the “mode of inhibition against ATP ligand” value (AasS; varying ATP, C10-AMS 0-500 nM) was “mixed inhibition”. For the same compound, the “inhibitory pattern for the C10 acyl substrate” value (AasS; varying C10, C10-AMS 0-500 nM) was “mixed type of inhibition”, the “Average (DeltaFNorm), AasS(D411A)” value (AasS(D411A); Dose 1.52588e-10) was 4.014 and the “Average (DeltaFNorm), AasS(D411A)” value (AasS(D411A); Dose 3.05176e-10) was 2.739. The “Average (DeltaFNorm), AasS(D411A)” value (AasS(D411A); Dose 6.10352e-10) was 3.15, the “Average (DeltaFNorm), AasS(D411A)” value (AasS(D411A); Dose 1.2207e-9) was 3.03 and the “Average (DeltaFNorm), AasS(D411A)” value (AasS(D411A); Dose 2.44141e-9) was -1.436. For the same compound, the “Average (DeltaFNorm), AasS(D411A)” value (AasS(D411A); Dose 4.88281e-9) was 1.165, the “Average (DeltaFNorm), AasS(D411A)” value (AasS(D411A); Dose 9.76563e-9) was 0.1826 and the “Average (DeltaFNorm), AasS(D411A)” value (AasS(D411A); Dose 1.95313e-8) was -0.6893. The “Average (DeltaFNorm), AasS(D411A)” value (AasS(D411A); Dose 3.90625e-8) was 2.194, the “Average (DeltaFNorm), AasS(D411A)” value (AasS(D411A); Dose 7.8125e-8) was -2.669 and the “Average (DeltaFNorm), AasS(D411A)” value (AasS(D411A); Dose 1.5625e-7) was -0.9022. The “Average (DeltaFNorm), AasS(D411A)” value (AasS(D411A); Dose 3.125e-7) was -3.911, the “Average (DeltaFNorm), AasS(D411A)” value (AasS(D411A); Dose 1.25e-6) was -3.293 and the “Average (DeltaFNorm), AasS(D411A)” value (AasS(D411A); Dose 2.5e-6) was -1.334. For the same compound, the “Average (DeltaFNorm), AasS(D411A)” value (AasS(D411A); Dose 5e-6) was -2.2407.
